Results reported in PMC9411704, “Assessment of the Carcinogenic Potential of Pretomanid in Transgenic Tg.rasH2 Mice” (International Journal of Toxicology, 2022).
Entries after “also recorded” stand apart in the source; their conditions may differ.

Tests used:
[1] = tested on: Salmonella typhimurium TA98, TA100, TA1535, TA1537 and Escherichia coli WP2uvrA; assay: Bacterial reverse mutation (Ames) assay, overall over five tester strains; assay type: cell-based; conditions: up to 2500 μg/plate
Protocol: (§1) Pretomanid and metabolite M50 were evaluated over a range of concentrations, with and without an added metabolic activation system, in five tester strains: Salmonella typhimurium histidine auxotrophs TA98, TA100, TA1535, and TA1537 [9] and the Escherichia coli tryptophan auxotroph WP2uvrA. S. typhimurium strains were received from Dr. Bruce Ames, Department of Biochemistry, University of California (Berkeley, CA). The E. coli strain was received from The National Collection of Industrial Bacteria, Torrey Research Station, Aberdeen, Scotland (United Kingdom). The metabolic activation system was a liver homogenate (S9) mix. The S9 component was prepared from male Sprague-Dawley rats that had been injected (intraperitoneally) with Aroclor^TM 1254 at 500 mg/kg, 5 days before sacrifice. The S9 mix was prepared immediately before use and contained 10% S9, 5 mM glucose-6-phosphate, 4 mM β-nicotinamide adenine dinucleotide phosphate, 8 mM MgCl2 and 33 mM KCl in a 100 mM phosphate buffer at pH 7.4. Pretomanid was tested at 0.05 to 5000 μg/plate. Metabolite M50 was tested at 78 to 2500 μg/plate. A negative (solvent) control culture and appropriate positive control cultures were included in each assay.
(§2) Bacteria were exposed to test materials by the plate incorporation method originally described by Ames et al and updated by Maron and Ames. Bottom agar was Vogel-Bonner minimal medium E [12] with 1.5% (w/v) agar, and the top Agar was 0.7% (w/v) agar and 0.5% (w/v) NaCl. After incubation, cultures were evaluated using a dissecting microscope for precipitation or cytotoxicity, and revertant colonies were counted. The mean numbers of revertant colonies in various cultures were compared to reach conclusions about assay validity and mutagenic potential. For the test article to be evaluated positive, it must cause a dose-related increase in the mean revertants per plate of at least one tester strain with a minimum of two increasing concentrations of test article.

[2] = Toxicokinetic assessment in wild-type CByB6F1 mice (Day 14); assay type: in vivo; conditions: for Mouse M50 AUC0-24 as multiple of estimated human M50 AUC0-24: highest dose, human 200 mg/day
Protocol: TK animals were included for the vehicle control (n = 4 sex) and pretomanid-treated groups (n = 10 sex/group). The TK cohort animals were dosed by oral gavage once daily for 14 consecutive days.
Toxicokinetic blood samples (300 μL for males and 250 μL for females) were collected in K3EDTA tubes after 14 doses from the TK cohort via retro-orbital bleeding under 70% CO2/30% O2 anesthesia. On Day 14, control mice were bled once 2 hours after dosing. On Day 14 and 15, Pretomanid-treated mice were bled predose, 0.5, 1, 3, 6, and 24 hours post dose. TK animals were euthanized after their final blood collection.
Collected blood was stored on wet ice until the samples were processed to plasma. Blood samples were centrifuged at 4±2°C and 8000 g for 5 minutes. Plasma was snap frozen in liquid nitrogen and stored in a deep freezer (≤−60°C) within 60 minutes of bleeding the TK animals.
Pretomanid and the M50 metabolite were quantified in mouse plasma by liquid chromatography-tandem mass spectrometry (LC-MS/MS) after protein precipitation. Aliquots of 25 µL of plasma were spiked with internal standards (PA-824-d5 or morphine) and proteins were precipitated in 1% formic acid in acetonitrile. A partial supernatant from each sample was transferred to a clean plate and diluted in acetonitrile/water (40:60) for pretomanid and deionized water for M50. Supernatant was analyzed for pretomanid or M50 using validated LC-MS/MS methods with a linear range of 20 to 10,000 ng/mL for pretomanid and 10 to 5,000 ng/mL for M50 (methods validated at Alliance Pharma, Malvern PA).
Sample collection time and plasma concentration data were analyzed to derive TK parameters by standard model independent methods based on the mean plasma concentration-time data for each dose group. The TK analyses of the plasma concentration profiles were performed using non-compartmental analysis in Phoenix WinNonlin Professional 7.0 (Certara, L.P., St. Louis, MO, USA). Concentration values below the lower limit of quantitation were treated as zeros for analysis purposes.

[3] = tested on: Escherichia coli WP2uvrA; assay: Bacterial reverse mutation (Ames) assay, plate incorporation
Protocol: as §1, §2

[4] = tested on: Salmonella typhimurium TA100; assay: as above; assay type: cell-based
Protocol: as §1, §2

[5] = tested on: Salmonella typhimurium TA1535; assay: as above; assay type: cell-based
Protocol: as §1, §2

[6] = tested on: Salmonella typhimurium TA1537; assay: as above; assay type: cell-based
Protocol: as §1, §2

[7] = tested on: Salmonella typhimurium TA98; assay: as above; assay type: cell-based
Protocol: as §1, §2

O=[N+]([O-])c1cn2c(n1)OC[C@@H](O)C2 [M50]
Precipitate or cytotoxicity in the Ames assay ([1]; single non-GLP assay): no precipitate or cytotoxicity at any concentration
Mutagenic potential ([1]; with and without S9, non-GLP): genotoxic; also recorded: positive
Exposure to M50 metabolite relative to pretomanid ([2]; all dose levels, both sexes): less than 10%
AUC(0-t) ([2]; female, CByB6F1 (wild-type), mouse, plasma, oral, 80 mg/kg/day, females, highest dose in the carcinogenicity study, read-out: Mean M50 AUC0-24): 10.2 µg·h/mL
Mouse M50 AUC0-24 as multiple of estimated human M50 AUC0-24 ([2]; females): approximately 3 X
Mean M50 AUC0-24 ([2]; males, highest dose in the carcinogenicity study): 4.6 µg·h/mL
Mouse M50 AUC0-24 as multiple of estimated human M50 AUC0-24 ([2]; males): approximately 1.5 X
Mean Number of Revertants/Plate ([3]; WP2uvrA +S9, 78 μg/plate): 18 Revertants/Plate
Mean Number of Revertants/Plate ([3]; WP2uvrA +S9, 156 μg/plate): 17 Revertants/Plate
Mean Number of Revertants/Plate ([3]; WP2uvrA +S9, 313 μg/plate): 23 Revertants/Plate
Mean Number of Revertants/Plate ([3]; WP2uvrA +S9, 625 μg/plate): 48 Revertants/Plate
Mean Number of Revertants/Plate ([3]; WP2uvrA +S9, 1250 μg/plate): 50 Revertants/Plate
Mean Number of Revertants/Plate ([3]; WP2uvrA +S9, 2500 μg/plate): 50 Revertants/Plate
Mean Number of Revertants/Plate ([3]; WP2uvrA −S9, 78 μg/plate): 18 Revertants/Plate
Mean Number of Revertants/Plate ([3]; WP2uvrA −S9, 156 μg/plate): 24 Revertants/Plate
Mean Number of Revertants/Plate ([3]; WP2uvrA −S9, 313 μg/plate): 26 Revertants/Plate
Mean Number of Revertants/Plate ([3]; WP2uvrA −S9, 625 μg/plate): 29 Revertants/Plate
Mean Number of Revertants/Plate ([3]; WP2uvrA −S9, 1250 μg/plate): 49 Revertants/Plate
Mean Number of Revertants/Plate ([3]; WP2uvrA −S9, 2500 μg/plate): 71 Revertants/Plate
Change in revertant colonies ([3]; WP2uvrA, presence and absence of S9): significant increases
Mean Number of Revertants/Plate ([4]; TA100 +S9, 78 μg/plate): 132 Revertants/Plate
Mean Number of Revertants/Plate ([4]; TA100 +S9, 156 μg/plate): 125 Revertants/Plate
Mean Number of Revertants/Plate ([4]; TA100 +S9, 313 μg/plate): 252 Revertants/Plate
Mean Number of Revertants/Plate ([4]; TA100 +S9, 625 μg/plate): 312 Revertants/Plate
Mean Number of Revertants/Plate ([4]; TA100 +S9, 1250 μg/plate): 666 Revertants/Plate
Mean Number of Revertants/Plate ([4]; TA100 +S9, 2500 μg/plate): 758 Revertants/Plate
Change in revertant colonies ([4]; TA100, presence and absence of S9): significant increases
Mean Number of Revertants/Plate ([4]; TA100 −S9, 78 μg/plate): 120 Revertants/Plate
Mean Number of Revertants/Plate ([4]; TA100 −S9, 156 μg/plate): 135 Revertants/Plate
Mean Number of Revertants/Plate ([4]; TA100 −S9, 313 μg/plate): 203 Revertants/Plate
Mean Number of Revertants/Plate ([4]; TA100 −S9, 625 μg/plate): 294 Revertants/Plate
Mean Number of Revertants/Plate ([4]; TA100 −S9, 1250 μg/plate): 588 Revertants/Plate
Mean Number of Revertants/Plate ([4]; TA100 −S9, 2500 μg/plate): 868 Revertants/Plate
Mean Number of Revertants/Plate ([5]; TA1535 +S9, 78 μg/plate): 12 Revertants/Plate
Mean Number of Revertants/Plate ([5]; TA1535 +S9, 156 μg/plate): 15 Revertants/Plate
Mean Number of Revertants/Plate ([5]; TA1535 +S9, 313 μg/plate): 31 Revertants/Plate
Mean Number of Revertants/Plate ([5]; TA1535 +S9, 625 μg/plate): 42 Revertants/Plate
Mean Number of Revertants/Plate ([5]; TA1535 +S9, 1250 μg/plate): 67 Revertants/Plate
Mean Number of Revertants/Plate ([5]; TA1535 +S9, 2500 μg/plate): 81 Revertants/Plate
Change in revertant colonies ([5]; TA1535, presence and absence of S9): significant increases
Mean Number of Revertants/Plate ([5]; TA1535 −S9, 78 μg/plate): 20 Revertants/Plate
Mean Number of Revertants/Plate ([5]; TA1535 −S9, 156 μg/plate): 16 Revertants/Plate
Mean Number of Revertants/Plate ([5]; TA1535 −S9, 313 μg/plate): 19 Revertants/Plate
Mean Number of Revertants/Plate ([5]; TA1535 −S9, 625 μg/plate): 24 Revertants/Plate
Mean Number of Revertants/Plate ([5]; TA1535 −S9, 1250 μg/plate): 43 Revertants/Plate
Mean Number of Revertants/Plate ([5]; TA1535 −S9, 2500 μg/plate): 60 Revertants/Plate
Mean Number of Revertants/Plate ([6]; TA1537 +S9, 78 μg/plate): 9 Revertants/Plate
Mean Number of Revertants/Plate ([6]; TA1537 +S9, 156 μg/plate): 12 Revertants/Plate
Mean Number of Revertants/Plate ([6]; TA1537 +S9, 313 μg/plate): 8 Revertants/Plate
Mean Number of Revertants/Plate ([6]; TA1537 +S9, 625 μg/plate): 14 Revertants/Plate
Mean Number of Revertants/Plate ([6]; TA1537 +S9, 1250 μg/plate): 20 Revertants/Plate
Mean Number of Revertants/Plate ([6]; TA1537 +S9, 2500 μg/plate): 11 Revertants/Plate
Change in revertant colonies ([6]; TA1537, absence of S9): significant increases
Mean Number of Revertants/Plate ([6]; TA1537 −S9, 78 μg/plate): 8 Revertants/Plate
Mean Number of Revertants/Plate ([6]; TA1537 −S9, 156 μg/plate): 13 Revertants/Plate
Mean Number of Revertants/Plate ([6]; TA1537 −S9, 313 μg/plate): 7 Revertants/Plate
Mean Number of Revertants/Plate ([6]; TA1537 −S9, 625 μg/plate): 13 Revertants/Plate
Mean Number of Revertants/Plate ([6]; TA1537 −S9, 1250 μg/plate): 10 Revertants/Plate
Mean Number of Revertants/Plate ([6]; TA1537 −S9, 2500 μg/plate): 18 Revertants/Plate
Mean Number of Revertants/Plate ([7]; TA98 +S9, 78 μg/plate): 18 Revertants/Plate
Mean Number of Revertants/Plate ([7]; TA98 +S9, 156 μg/plate): 19 Revertants/Plate
Mean Number of Revertants/Plate ([7]; TA98 +S9, 313 μg/plate): 22 Revertants/Plate
Mean Number of Revertants/Plate ([7]; TA98 +S9, 625 μg/plate): 25 Revertants/Plate
Mean Number of Revertants/Plate ([7]; TA98 +S9, 1250 μg/plate): 24 Revertants/Plate
Mean Number of Revertants/Plate ([7]; TA98 +S9, 2500 μg/plate): 38 Revertants/Plate
Change in revertant colonies ([7]; TA98, presence of S9): significant increases
Mean Number of Revertants/Plate ([7]; TA98 −S9, 78 μg/plate): 13 Revertants/Plate
Mean Number of Revertants/Plate ([7]; TA98 −S9, 156 μg/plate): 16 Revertants/Plate
Mean Number of Revertants/Plate ([7]; TA98 −S9, 313 μg/plate): 14 Revertants/Plate
Mean Number of Revertants/Plate ([7]; TA98 −S9, 625 μg/plate): 17 Revertants/Plate
Mean Number of Revertants/Plate ([7]; TA98 −S9, 1250 μg/plate): 21 Revertants/Plate
Mean Number of Revertants/Plate ([7]; TA98 −S9, 2500 μg/plate): 33 Revertants/Plate
